Test results as given in patent publication US12319652B2, “Salts and solid forms of (R)-1-(5-methoxy-1H-indol-1-yl)-N,N-dimethylpropan-2-amine” (priority 2021, dated 2025).

Tests used:
[1] = assay type: physicochemical
Procedure: Equilibrium Humidity Evaluation (40° C./75% RH for 10 Days)
100 mg portions of compound 1 salts (for inputs see table below) were placed in the relevant open vials. The powders were finely divided and distributed evenly over the base of the vial, such that equal material coverage across the panel was observed. These samples were then maintained 40°C. under 75% RH. The samples were sub-sampled at intervals of 5 and 10 days and analysed by ^1H NMR, HPLC, XRPD, DSC, TGA and PLM, for evidence of phase change or chemical degradation (FIG. 269-297).

[2] = Dynamic vapor sorption (DVS); assay type: physicochemical; conditions: for DVS isotherm type / hygroscopicity: 0 to 90 to 0% RH; for DVS desorption behaviour (hysteresis): during desorption
Procedure: There are two main methods to use, one is by time where the equilibration is given by a fixed time, i.e., 1 hour per step and is appropriate for an unknown phase. The second, is by mass per time unit (dm/dt) of 0.002%/min; that is when the difference in weight is less than 0.002%, the instrument moves onto the next step. For unknown hygroscopicity, the method by time is indicated because it gives an idea of water affinity without wasting much time. Ideally the analyses are repeated using the mass equilibration method to confirm. By experience for hygroscopic samples, the analysis can continue for days. For non-hygroscopic samples the difference between the two methods may not be significant.
Consequently, amorphous batch 1 was analyzed by the fixed time method and once compound 1 fumarate crystalline polymorphic Form A was generated the analyses was repeated as mass per unit time equilibrated @dm/dt ([…]) and is given below (refer to FIG. 12).
(§1) The moisture sorption properties of the feed API were analysed by DVS Intrinsic instrument (Surface Measurement System). Approximately 20 to 50 mg of API was weighed onto an aluminium pan and loaded into the instrument equilibrated at 25° C. The sample was equilibrated under a dry atmosphere (0% relative humidity) for 60 minutes, before increasing the humidity from 0% to 30% at 5%4 step increment and from 30% to 90% at 10% step increment. A desorption cycle was also applied from 90% to 30% (10% step decrement) and from 30% to 0% (5% step decrement). A rate of change in mass per time unit (dm/dt) of 0.002%/min was set as the equilibrium parameter. Kinetic and isotherm graphs were calculated.
Specimens were equilibrated at 0% RH for 60 min, prior to DVS analyses (stepped increment % RH up to 90% RH and stepped decrement % RH down to 0% RH.
as §1, with “5%” for “5%4”

[3] = Solubility determinations in SIF buffers (FaSSIF, FeSSIF, FaSSGF); assay type: physicochemical; conditions: FaSSIF, FeSSIF and FaSSGF, 37° C., 24 h, concentration tested 30 mg/ml
Procedure: At this stage ca. 1 g of each front-runner salt form was prepared. Salt forms that offered significant solubility and stability advantages over the non-ionized API were prioritized. […] Scale Up
The solubility of the salts below was determined in FaSSIF, FeSSIF and FaSSGF by reference to the calibration curve of amorphous compound 1.
Separate portions of compound 1 were weighed out into aluminum boats and were charged to the relevant volumetric flasks. Solutions were made to volume with 1 to 1 (v/v) acetonitrile/purified water to give calibrants of known API concentrations and analyzed by HPLC, suitable to determine the concentration of compound 1 free base in the SIF buffer solubility study.
Each sample (150 mg) was suspended in the relevant SIF buffer (5.0 ml), to give a concentration of 30 mg/ml and maintain at 37° C. for 24 h. The pH was adjusted using 1 M HCl or 1 M NaOH, to ensure that the suspension remains in range.
Sample (1 ml) of the well-stirred representative suspensions was obtained at 1 h, 3 h, 6 h and 24 h and the pH was recorded. The pH of the bulk suspension was re-adjusted when necessary. The obtained sample from each vial was centrifuged, and the supernatant was analysed by HPLC (note, the analyte was diluted, when outside of the calibration range); XRPD analysis was performed on the wet sample pellet for evidence of form change, as well as on the oven-dried pellet (undervacuum at 40° C.).

[4] = Equilibrium humidity evaluation of crystalline compound 1 HCl Form A (95% RH/20° C.); assay type: physicochemical; conditions: 20° C./95% RH, open-capped and double bagged vials, 10-day period
Procedure: The stability of crystalline compound 1 HCl Form A was evaluated. Absorbent compound 1·Cl (Form A), (100 mg) was maintained, open-capped at 95% RH/20° C. and monitored at t=0, t=5 d and t=10 d, time points.
While absorbent Compound 1 HCl Form A), (100 mg) was placed open-capped inside double, cable-tied, electrostatic polythene bags (to mimic a typical packaging configuration) and placed inside the same humidity chamber at 95% RH at 20° C. and monitored at t=0, t=5 d and t=10 d time points. Stability of compound 1·HCl (Form A) at 40° C./75% RH was examined as part of the salt screen, and was stable over 10 d.

[5] = listed as crystalline compound 1 HCl Form A

COc1ccc2c(ccn2C[C@@H](C)N(C)C)c1.O=C(O)/C=C\C(=O)O [compound 1 maleate]
Change of purity profile / CP ([1]; 40° C./75% RH, 10-day time point): reduction in CP
DVS isotherm uptake [2]: ca. 3.5 % w/w
DVS 0 to 90 to 0% RH (dm/dt <0.002%) ([2]; 0.0% RH, desorption): −0.07%
DVS 0 to 90 to 0% RH (dm/dt <0.002%) ([2]; 0.0% RH, sorption): DVS 0 to 90 to 0% RH (dm/dt <0.002%): 0.0 (0.00%), 5.0
DVS isotherm type / hygroscopicity [2]: hygroscopic
DVS 0 to 90 to 0% RH (dm/dt <0.002%) ([2]; 5.0% RH, desorption): −0.03%
DVS 0 to 90 to 0% RH (dm/dt <0.002%) ([2]; 5.0% RH, sorption): 0.02%
DVS 0 to 90 to 0% RH (dm/dt <0.002%) ([2]; 10.0% RH, desorption): 0.03%
DVS 0 to 90 to 0% RH (dm/dt <0.002%) ([2]; 10.0% RH, sorption): 0.05%
DVS 0 to 90 to 0% RH (dm/dt <0.002%) ([2]; 15.0% RH, desorption): 0.09%
DVS 0 to 90 to 0% RH (dm/dt <0.002%) ([2]; 15.0% RH, sorption): 0.08%
DVS 0 to 90 to 0% RH (dm/dt <0.002%) ([2]; 20.0% RH, desorption): 0.15%
DVS 0 to 90 to 0% RH (dm/dt <0.002%) ([2]; 20.0% RH, sorption): 0.11%
DVS 0 to 90 to 0% RH (dm/dt <0.002%) ([2]; 25.0% RH, desorption): 0.22%
DVS 0 to 90 to 0% RH (dm/dt <0.002%) ([2]; 25.0% RH, sorption): 0.14%
DVS 0 to 90 to 0% RH (dm/dt <0.002%) ([2]; 30.0% RH, desorption): 0.30%
DVS 0 to 90 to 0% RH (dm/dt <0.002%) ([2]; 30.0% RH, sorption): 0.18%
DVS 0 to 90 to 0% RH (dm/dt <0.002%) ([2]; 40.0% RH, desorption): 0.48%
DVS 0 to 90 to 0% RH (dm/dt <0.002%) ([2]; 40.0% RH, sorption): 0.26%
DVS 0 to 90 to 0% RH (dm/dt <0.002%) ([2]; 50.0% RH, desorption): 0.70%
DVS 0 to 90 to 0% RH (dm/dt <0.002%) ([2]; 50.0% RH, sorption): 0.42%
DVS 0 to 90 to 0% RH (dm/dt <0.002%) ([2]; 60.0% RH, desorption): 1.00%
DVS 0 to 90 to 0% RH (dm/dt <0.002%) ([2]; 60.0% RH, sorption): 0.86%
DVS 0 to 90 to 0% RH (dm/dt <0.002%) ([2]; 70.0% RH, desorption): 1.40%
DVS 0 to 90 to 0% RH (dm/dt <0.002%) ([2]; 70.0% RH, sorption): 1.38%
DVS 0 to 90 to 0% RH (dm/dt <0.002%) ([2]; 80.0% RH, desorption): 2.03%
DVS 0 to 90 to 0% RH (dm/dt <0.002%) ([2]; 80.0% RH, sorption): 2.00%
DVS 0 to 90 to 0% RH (dm/dt <0.002%) ([2]; 90.0% RH, desorption): 3.44%
DVS 0 to 90 to 0% RH (dm/dt <0.002%) ([2]; 90.0% RH, sorption): 3.44%
DVS desorption behaviour (hysteresis) [2]: small hysteresis
Solubility in SIF buffers [3]: freely soluble

COc1ccc2c(ccn2C[C@@H](C)N(C)C)c1.Cl [Crystalline compound 1 HCl Form A]
Stability at 40° C./75% RH ([1]; 10 days, listed as compound 1·HCl (Form A)): stable
DVS isotherm type / hygroscopicity ([2]; listed as Compound 1·HCl Form A): slightly hygroscopic
DVS isotherm type / hygroscopicity [2, 5]: Slightly hygroscopic
DVS mass change at 0.0% RH ([2]; desorption step, dm/dt <0.002%): 0.0239%
DVS mass change at 5.0% RH ([2]; desorption step, dm/dt <0.002%): 0.0344%
DVS mass change at 10.0% RH ([2]; desorption step, dm/dt <0.002%): 0.0455%
DVS mass change at 15.0% RH ([2]; desorption step, dm/dt <0.002%): 0.0547%
DVS mass change at 20.0% RH ([2]; desorption step, dm/dt <0.002%): 0.0648%
DVS mass change at 25.0% RH ([2]; desorption step, dm/dt <0.002%): 0.0714%
DVS mass change at 30.0% RH ([2]; desorption step, dm/dt <0.002%): 0.0860%
DVS mass change at 40.0% RH ([2]; desorption step, dm/dt <0.002%): 0.0968%
DVS mass change at 50.0% RH ([2]; desorption step, dm/dt <0.002%): 0.1367%
DVS mass change at 60.0% RH ([2]; desorption step, dm/dt <0.002%): 0.1671%
DVS mass change at 70.0% RH ([2]; desorption step, dm/dt <0.002%): 0.2211%
DVS mass change at 80.0% RH ([2]; desorption step, dm/dt <0.002%): 0.2935%
DVS desorption behaviour (hysteresis) [2, 5]: held on to a little water at 0% RH
DVS mass change at 0.0% RH ([2]; sorption step, dm/dt <0.002%): DVS 0 to 90 to 0% RH (dm/dt <0.002%): 0.0 (0.0011%), 5.0
DVS mass change at 5.0% RH ([2]; sorption step, dm/dt <0.002%): 0.0078%
DVS mass change at 10.0% RH ([2]; sorption step, dm/dt <0.002%): 0.0161%
DVS mass change at 15.0% RH ([2]; sorption step, dm/dt <0.002%): 0.0248%
DVS mass change at 20.0% RH ([2]; sorption step, dm/dt <0.002%): 0.0329%
DVS mass change at 25.0% RH ([2]; sorption step, dm/dt <0.002%): 0.0379%
DVS mass change at 30.0% RH ([2]; sorption step, dm/dt <0.002%): 0.0462%
DVS mass change at 40.0% RH ([2]; sorption step, dm/dt <0.002%): 0.0659%
DVS mass change at 50.0% RH ([2]; sorption step, dm/dt <0.002%): 0.0961%
DVS mass change at 60.0% RH ([2]; sorption step, dm/dt <0.002%): 0.1388%
DVS mass change at 70.0% RH ([2]; sorption step, dm/dt <0.002%): 0.1902%
DVS mass change at 80.0% RH ([2]; sorption step, dm/dt <0.002%): 0.2647%
DVS mass change at 90.0% RH ([2]; sorption step, dm/dt <0.002%): 0.4599%
Solubility in SIF buffers [3]: Solubility in SIF buffers: Soluble in all SIF buffers at 37 °C during 24 h.
Water uptake by TG analyses [4]: did not show any water uptake
